Assay results published in patent US20260365628A1, “SUBSTITUTED 3,4-DIHYDROQUINOLINONE INHIBITORS OF TSHR” (Septerna, Inc., priority 2022, published 2026).
pIC50: −log10 of the molar value.

biological target: T1, hTSHR (Homo sapiens, UniProt P16473); assay: hTSHR TR-FRET cAMP Assay (inhibition of M22-stimulated cAMP production); type: cell-based; settings: Expi293F Inducible cells stably expressing hTSHR; cAMP HTRF; stimulated with EC80 of anti-TSHR antibody M22; 15 min compound preincubation, 30 min at 37° C.; read-out: Activity (IC50 bins)
T1 construct: expressed in transfected cells
Outline: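 Readout was a cAMP HTRF ratio of 655/620 nm after lysis, scaled between the EC80 M22 signal (0% inhibition) and no-agonist vehicle (100%). Frozen induced Expi293F-hTSHR cells saw test compounds (0.5% DMSO) for 15 min at 37 °C before 30 min of M22 stimulation at EC80.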

T1 sequence (P16473 21-764): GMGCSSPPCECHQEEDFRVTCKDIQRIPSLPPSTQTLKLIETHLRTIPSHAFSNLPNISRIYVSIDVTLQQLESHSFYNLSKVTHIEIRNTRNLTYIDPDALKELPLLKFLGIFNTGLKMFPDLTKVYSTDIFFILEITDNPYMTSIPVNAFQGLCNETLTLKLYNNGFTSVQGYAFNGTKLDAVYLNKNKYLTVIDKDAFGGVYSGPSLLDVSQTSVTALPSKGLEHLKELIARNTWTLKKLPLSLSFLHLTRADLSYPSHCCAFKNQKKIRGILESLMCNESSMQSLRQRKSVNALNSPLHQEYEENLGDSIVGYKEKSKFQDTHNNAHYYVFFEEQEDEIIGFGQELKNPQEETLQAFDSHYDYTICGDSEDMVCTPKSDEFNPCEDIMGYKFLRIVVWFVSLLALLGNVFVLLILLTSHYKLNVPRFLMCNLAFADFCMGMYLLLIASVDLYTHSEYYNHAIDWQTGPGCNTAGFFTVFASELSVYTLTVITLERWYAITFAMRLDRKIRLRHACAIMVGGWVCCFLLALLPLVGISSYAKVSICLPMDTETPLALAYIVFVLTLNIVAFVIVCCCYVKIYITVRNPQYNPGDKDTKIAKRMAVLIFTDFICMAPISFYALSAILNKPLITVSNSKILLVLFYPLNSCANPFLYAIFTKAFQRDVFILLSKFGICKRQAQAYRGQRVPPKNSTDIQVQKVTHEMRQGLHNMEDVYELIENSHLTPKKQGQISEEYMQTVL

| pIC50 | SMILES |
| --- | --- |
| 6.00 to 7.00 | C[C@@H](c1cccc(OC(F)(F)F)c1)n1c(=O)cnc2cc(NC(=O)C3CCCC3)ccc21 [Example 315, (S)—N-(2-oxo-1-(1-(3-(trifluoromethoxy)phenyl)ethyl)-1,2-dihydroquinoxalin-6-yl)cyclopentanecarboxamide] |
| < 6.00 | C[C@H]1Oc2cc(NC(=O)NC(C)(C)C)ccc2N([C@@H](C)c2nccc(C(F)(F)F)n2)C1=O [Example 316, 1-(tert-butyl)-3-((R)-2-methyl-3-oxo-4-((S)-1-(4-(trifluoromethyl)pyrimidin-2-yl)ethyl)-3,4-dihydro-2H-benzo[b][1,4]oxazin-7-yl)urea] |
| 6.00 to 7.00 | C[C@H](c1nccc(C(F)(F)F)n1)N1C(=O)[C@@H](C)Oc2cc(NC(=O)NC(C)(C)C)ccc21 [Example 317, 1-(tert-butyl)-3-((R)-2-methyl-3-oxo-4-((R)-1-(4-(trifluoromethyl)pyrimidin-2-yl)ethyl)-3,4-dihydro-2H-benzo[b][1,4]oxazin-7-yl)urea] |
| 6.00 to 7.00 | C[C@@H](c1cccc(OC(F)(F)F)n1)n1c(=O)cnc2cc(NC(=O)CCc3cccc(C(F)(F)F)c3)ccc21 [Example 318, (S)—N-(2-oxo-1-(1-(6-(trifluoromethoxy)pyridin-2-yl)ethyl)-1,2-dihydroquinoxalin-6-yl)-3-(3-(trifluoromethyl)phenyl)propanamide] |
| 6.00 to 7.00 | C[C@@H](c1cccc(Cl)c1)n1c(=O)cnc2cc(NC(=O)NC3(C)CCC3)ccc21 [Example 319, (S)-1-(1-(1-(3-chlorophenyl)ethyl)-2-oxo-1,2-dihydroquinoxalin-6-yl)-3-(1-methylcyclobutyl)urea] |
| 6.00 to 7.00 | C[C@@H](c1cccc(C(F)(F)F)c1)n1c(=O)cnc2cc(NC(=O)NC3(C)CCC3)ccc21 [Example 320, (S)-1-(1-methylcyclobutyl)-3-(2-oxo-1-(1-(3-(trifluoromethyl)phenyl)ethyl)-1,2-dihydroquinoxalin-6-yl)urea] |
| > 7.00 | C[C@H]1Oc2cc(NC(=O)NC3(C)CCCC3)ccc2N(Cc2cccc(OC(F)(F)F)n2)C1=O [Example 321, (R)-1-(2-methyl-3-oxo-4-((6-(trifluoromethoxy)pyridin-2-yl)methyl)-3,4-dihydro-2H-benzo[b][1,4]oxazin-7-yl)-3-(1-methylcyclopentyl)urea] |
| > 7.00 | C[C@H]1Oc2cc(NC(=O)NC3(C)CCCC3)ccc2N([C@@H](C)c2cccc(C(F)(F)F)n2)C1=O [Example 322, 1-((R)-2-methyl-3-oxo-4-((S)-1-(6-(trifluoromethyl)pyridin-2-yl)ethyl)-3,4-dihydro-2H-benzo[b][1,4]oxazin-7-yl)-3-(1-methylcyclopentyl)urea] |
| > 7.00 | C[C@H]1Oc2cc(NC(=O)NC3(C)CCCC3)ccc2N([C@@H](C)c2cccc(OC(F)(F)F)n2)C1=O [Example 323, 1-((R)-2-methyl-3-oxo-4-((S)-1-(6-(trifluoromethoxy)pyridin-2-yl)ethyl)-3,4-dihydro-2H-benzo[b][1,4]oxazin-7-yl)-3-(1-methylcyclopentyl)urea] |
| 6.00 to 7.00 | C[C@H]1Oc2cc(NC(=O)N[C@H]3C[C@H](C(F)(F)F)C3)ccc2N([C@@H](C)c2cccc(OC(F)(F)F)c2)C1=O [Example 324, 1-((R)-2-methyl-3-oxo-4-((S)-1-(3-(trifluoromethoxy)phenyl)ethyl)-3,4-dihydro-2H-benzo[b][1,4]oxazin-7-yl)-3-((1r,3R)-3-(trifluoromethyl)cyclobutyl)urea] |
| 6.00 to 7.00 | C[C@H]1Oc2cc(NC(=O)N[C@H]3C[C@@H](C(F)(F)F)C3)ccc2N([C@@H](C)c2cccc(OC(F)(F)F)c2)C1=O [Example 325, 1-((R)-2-methyl-3-oxo-4-((S)-1-(3-(trifluoromethoxy)phenyl)ethyl)-3,4-dihydro-2H-benzo[b][1,4]oxazin-7-yl)-3-((1s,3S)-3-(trifluoromethyl)cyclobutyl)urea] |
| 6.00 to 7.00 | C[C@H]1Oc2cc(NC(=O)NC(C)(C)C)c(F)cc2N(Cc2ccccc2)C1=O [Example 326, (R)-1-(4-benzyl-6-fluoro-2-methyl-3-oxo-3,4-dihydro-2H-benzo[b][1,4]oxazin-7-yl)-3-(tert-butyl)urea] |
| > 7.00 | C[C@H]1Oc2cc(NC(=O)NC(C)(C)C)c(F)cc2N(Cc2cccc(C(F)F)c2)C1=O [Example 327, (R)-1-(tert-butyl)-3-(4-(3-(difluoromethyl)benzyl)-6-fluoro-2-methyl-3-oxo-3,4-dihydro-2H-benzo[b][1,4]oxazin-7-yl)urea] |
| 6.00 to 7.00 | C[C@H]1Oc2cc(NC(=O)NC(C)(C)C)c(F)cc2N([C@@H](C)c2ccccc2)C1=O [Example 328, 1-(tert-butyl)-3-((R)-6-fluoro-2-methyl-3-oxo-4-((S)-1-phenylethyl)-3,4-dihydro-2H-benzo[b][1,4]oxazin-7-yl)urea] |
| > 7.00 | C[C@H]1Oc2cc(NC(=O)NC(C)(C)C)c(C(F)(F)F)cc2N(Cc2ccccc2)C1=O [Example 330, (R)-1-(4-benzyl-2-methyl-3-oxo-6-(trifluoromethyl)-3,4-dihydro-2H-benzo[b][1,4]oxazin-7-yl)-3-(tert-butyl)urea] |
| < 6.00 | C[C@H](c1ccccc1)N1C(=O)[C@@H](C)Oc2cc(NC(=O)NC(C)(C)C)ccc21 [Example 331, 1-(tert-butyl)-3-((R)-2-methyl-3-oxo-4-((R)-1-phenylethyl)-3,4-dihydro-2H-benzo[b][1,4]oxazin-7-yl)urea] |

| pIC50 | SMILES |
| --- | --- |
| 6.00 to 7.00 | Cc1cc2c(cc1NC(=O)NC(C)(C)C)O[C@H](C)C(=O)N2Cc1ccccc1 [Example 332, (R)-1-(4-benzyl-2,6-dimethyl-3-oxo-3,4-dihydro-2H-benzo[b][1,4]oxazin-7-yl)-3-(tert-butyl)urea] |
| > 7.00 | C[C@H]1Oc2c(cc(F)c(NC(=O)NC(C)(C)C)c2F)N(Cc2cccc(OC(F)F)c2)C1=O [Example 335, 3-tert-butyl-1-[(2R)-4-{[3-(difluoromethoxy)phenyl]methyl}-6,8-difluoro-2-methyl-3-oxo-2H-1,4-benzoxazin-7-yl]urea] |
| > 7.00 | C[C@H]1Oc2c(cc(F)c(NC(=O)NC(C)(C)C)c2F)N(Cc2cccc(C(F)F)c2)C1=O [Example 336, (R)-1-(tert-butyl)-3-(4-(3-(difluoromethyl)benzyl)-6,8-difluoro-2-methyl-3-oxo-3,4-dihydro-2H-benzo[b][1,4]oxazin-7-yl)urea] |
| 6.00 to 7.00 | CC(c1cc(C(F)(F)F)ccn1)n1c(=O)cnc2cc(NC(=O)NC3(C)CCC3)ccc21 (centres unmarked) [Example 337, 1-(1-methylcyclobutyl)-3-(2-oxo-1-(1-(4-(trifluoromethyl)pyridin-2-yl)ethyl)-1,2-dihydroquinoxalin-6-yl)urea] |
| 6.00 to 7.00 | C[C@H]1Oc2cc(NC(=O)NC(C)(C)C)c(F)cc2N(Cc2cccc(OC(F)F)c2)C1=O [Example 338, (R)-1-(tert-butyl)-3-(4-(3-(difluoromethoxy)benzyl)-6-fluoro-2-methyl-3-oxo-3,4-dihydro-2H-benzo[b][1,4]oxazin-7-yl)urea] |
| 6.00 to 7.00 | C[C@@H](c1cccc(OC(F)(F)F)c1)n1c(=O)cnc2cc(NC(=O)NC(C)(C)C)c(F)cc21 [Example 339, (S)-1-(tert-butyl)-3-(7-fluoro-2-oxo-1-(1-(3-(trifluoromethoxy)phenyl)ethyl)-1,2-dihydroquinoxalin-6-yl)urea] |
| 6.00 to 7.00 | C[C@H]1Oc2cc(NC(=O)NC(C)(C)C)c(F)c(F)c2N(Cc2cccc(C(F)F)c2)C1=O [Example 340, (R)-1-(tert-butyl)-3-(4-(3-(difluoromethyl)benzyl)-5,6-difluoro-2-methyl-3-oxo-3,4-dihydro-2H-benzo[b][1,4]oxazin-7-yl)urea] |
| 6.00 to 7.00 | C[C@H]1Oc2cc(NC(=O)NC(C)(C)C)c(C#N)cc2N(Cc2ccccc2)C1=O [Example 341, (R)-1-(4-benzyl-6-cyano-2-methyl-3-oxo-3,4-dihydro-2H-benzo[b][1,4]oxazin-7-yl)-3-(tert-butyl)urea] |
| > 7.00 | C[C@H]1Oc2cc(NC(=O)NC(C)(C)C)c(C#N)cc2N(Cc2cccc(C(F)F)c2)C1=O [Example 342, (R)-1-(tert-butyl)-3-(6-cyano-4-(3-(difluoromethyl)benzyl)-2-methyl-3-oxo-3,4-dihydro-2H-benzo[b][1,4]oxazin-7-yl)urea] |
| > 7.00 | C[C@@H](c1ccccc1)N1C(=O)CCc2cc(NC(=O)NC(C)(C)C)c(C(F)(F)F)cc21 [Example 343, (S)-1-(tert-butyl)-3-(2-oxo-1-(1-phenylethyl)-7-(trifluoromethyl)-1,2,3,4-tetrahydroquinolin-6-yl) urea] |
| 6.00 to 7.00 | C[C@@H](c1ccccc1)n1c(=O)cnc2cc(NC(=O)NC(C)(C)C)c(Cl)cc21 [Example 344, (S)-1-(tert-butyl)-3-(7-chloro-2-oxo-1-(1-phenylethyl)-1,2-dihydroquinoxalin-6-yl)urea] |
| 6.00 to 7.00 | CC(C)(C)NC(=O)Nc1c(F)cc2c(c1F)CCC(=O)N2Cc1ccccc1 [Example 345, 1-(1-benzyl-5,7-difluoro-2-oxo-1,2,3,4-tetrahydroquinolin-6-yl)-3-(tert-butyl) urea] |
| 6.00 to 7.00 | C[C@@H](c1ccccc1)n1c(=O)cnc2cc(NC(=O)NC(C)(C)C)c(C(F)(F)F)cc21 [Example 346, 3-tert-butyl-1-{2-oxo-1-[(1S)-1-phenylethyl]-7-(trifluoromethyl)quinoxalin-6-yl}urea] |
| 6.00 to 7.00 | Cc1cc2c(cc1NC(=O)NC(C)(C)C)ncc(=O)n2[C@@H](C)c1ccccc1 [Example 347, 3-tert-butyl-1-{7-methyl-2-oxo-1-[(1S)-1-phenylethyl]quinoxalin-6-yl}urea] |
| 6.00 to 7.00 | C[C@@H](c1ccccc1)n1c(=O)cnc2cc(NC(=O)NC(C)(C)C)c(C3CC3)cc21 [Example 348, 3-tert-butyl-1-{7-cyclopropyl-2-oxo-1-[(1S)-1-phenylethyl]quinoxalin-6-yl}urea] |

| SMILES | pIC50 |
| --- | --- |
| C[C@H]1Oc2c(cc(F)c(NC(=O)NC(C)(C)C)c2F)N(Cc2ccccc2)C1=O [Example 329, (R)-1-(4-benzyl-6,8-difluoro-2-methyl-3-oxo-3,4-dihydro-2H-benzo[b][1,4]oxazin-7-yl)-3-(tert-butyl)urea] | 6.00 to 7.00 |
